According to the C3SDB collision cross section collection:

Details: [M+H]+; instrument: TW; Major Mix IMS/Tof Calibration Kit (Waters)

Point of comparison: `CCNC(C)Cc1ccc2c(c1)OCO2` (stereo not given) [MDEA], “collision cross section (N2)” value 147.5 Å². Against it:
- COc1ccc(CC(C)NCC(O)c2ccc(O)c(NC=O)c2)cc1 (stereo not given) [Formoterol] — higher, 178.6 Å²
- O=C1CN=C(c2ccccc2)c2cc(Cl)ccc2N1CC(F)(F)F [Halazepam] — higher, 170.9 Å²
- CC(=O)O[C@H]1C=C[C@H]2[C@H]3Cc4ccc(O)c5c4[C@@]2(CCN3C)[C@H]1O5 [Heroin-M 6-MAM] — higher, 175.1 Å²
- C[C@]12CCC(=O)C=C1CC[C@@H]1[C@@H]2[C@@H](O)C[C@@]2(C)[C@H]1CC[C@]2(O)C(=O)CO [Hydrocortisone] — higher, 186.6 Å²
- CN(C)CCCN1c2ccccc2CCc2ccccc21 [Imipramine] — higher, 166.5 Å²
- CCCCn1cc(C(=O)c2cccc3ccccc23)c2ccccc21 [JWH-073] — higher, 182.5 Å²
- CCN(CC)C(=O)[C@@H]1C=C2c3cccc4[nH]cc(c34)C[C@H]2N(C)C1 [LSD] — higher, 179.5 Å²
- c1ccc([C@H]2CN3CCSC3=N2)cc1 [Levamisole] — lower, 144.6 Å²
- CNC[C@@H](C)CN1c2ccccc2Sc2ccc(OC)cc21 [Levomepromazine-M N-desmethyl] — higher, 174.3 Å²
- CCN(CC)CC(=O)Nc1c(C)cccc1C [Lidocaine] — higher, 157.7 Å²
- CN(C)C(=O)C(CCN1CCC(O)(c2ccc(Cl)cc2)CC1)(c1ccccc1)c1ccccc1 [Loperamide] — higher, 222.7 Å²
- CN1C(=O)C(O)N=C(c2ccccc2Cl)c2cc(Cl)ccc21 (stereo not given) [Lormetazepam] — higher, 169.5 Å²
- CCCCc1nc(Cl)c(CO)n1Cc1ccc(-c2ccccc2-c2nn[nH]n2)cc1 [Losartan] — higher, 200.3 Å²
- CCC(Cc1ccc2c(c1)OCO2)NC (stereo not given) [MBDB] — higher, 148.4 Å²
- CC(=O)Nc1cccc(O)c1 [Metacetamol] — lower, 129.8 Å²
- CC(=O)OC1CC[C@H]2[C@@H]3CC[C@H]4CC(=O)C=C(C)[C@]4(C)[C@H]3CC[C@]12C (stereo not given in full) [Metenolone acetate] — higher, 187.6 Å²
- Cc1ccccc1-n1c(C)nc2ccccc2c1=O [Methaqualone] — higher, 155 Å²
- CCNC1(c2cccc(OC)c2)CCCCC1=O (stereo not given) [Methoxetamine] — higher, 159.6 Å²
- CCN(CC)CCNC(=O)c1cc(Cl)c(N)cc1OC [Metoclopramide] — higher, 173.2 Å²
- CN1CCN2c3ccccc3Cc3ccccc3C2C1 (stereo not given) [Mianserin] — higher, 164.5 Å²
- Cc1[nH]c(=O)c(C#N)cc1-c1ccncc1 [Milrinone] — higher, 150.4 Å²
- c1ccc2c(c1)Cc1cccnc1N1CCNCC21 (stereo not given) [Mirtazapine-M N-desmethyl] — higher, 156.9 Å²
- CN1CCN2c3ncccc3Cc3ccccc3C2C1 (stereo not given) [Mirtazapine] — higher, 161 Å²
- Oc1ccc2c3c1OC1C(O)C=CC4C(C2)NCCC341 (stereo not given) [Morphine-M Nor] — higher, 161.5 Å²
- COc1ccc(N2CCNCC2)cc1 [N-(p-Methoxyphenyl)piperazine (pMeOPP)] — lower, 141.9 Å²
- C=CCN1CC[C@]23c4c5ccc(O)c4O[C@H]2C(=O)CC[C@@]3(O)[C@H]1C5 [Naloxone] — higher, 171.8 Å²
- C[C@]12CC[C@H]3[C@@H](CCC4=CC(=O)CC[C@@H]43)[C@@H]1CC[C@@H]2O [Nandrolone] — higher, 167.5 Å²
- COCCOC(=O)C1=C(C)NC(C)=C(C(=O)OC(C)C)C1c1cccc([N+](=O)[O-])c1 (stereo not given) [Nimodipine] — higher, 197.8 Å²
- CN/C(=C\[N+](=O)[O-])NCCSCc1csc(CN(C)C)n1 [Nizatidine] — higher, 168.4 Å²
- COc1ccc2c(c1OC)C(=O)O[C@@H]2[C@H]1c2c(cc3c(c2OC)OCO3)CCN1C [Noscapine] — higher, 194.3 Å²
- Cc1cc2c(s1)Nc1ccccc1N=C2N1CCN(C)CC1 [Olanzapine] — higher, 175.5 Å²
- NC(=O)N1c2ccccc2CC(=O)c2ccccc21 [Oxcarbazepine] — higher, 153.8 Å²
- COc1ccc(Cc2nccc3cc(OC)c(OC)cc23)cc1OC [Papaverine] — higher, 185.3 Å²
- Fc1ccc([C@@H]2CCNC[C@H]2COc2ccc3c(c2)OCO3)cc1 [Paroxetine] — higher, 183.2 Å²
- CC(C)=CCN1CCC2(C)c3cc(O)ccc3CC1C2C (stereo not given) [Pentazocine] — higher, 173.5 Å²
- CCCC(NC)C(=O)c1ccccc1 (stereo not given) [Pentedrone] — lower, 145.7 Å²
- CCN(CC)CCOCCOC(=O)C1(c2ccccc2)CCCC1 [Pentoxyverine] — higher, 175.5 Å²
- Cc1cc(=O)n(-c2ccccc2)n1C [Phenazone] — lower, 137.7 Å²
- CC1NCCOC1c1ccccc1 (stereo not given) [Phenmetrazine] — lower, 138.9 Å²
